# In a melting point compilation (Tetko et al.; mined from patent text by program, amines drawn as free bases though some values may be those of a salt):
row,Compound,melting point [°C]
1,CC1(CCN2CCN(C(C)(C)C)C(=O)C2)Cn2cc([N+](=O)[O-])nc2O1 (stereo not given),153 to 154
2,Nc1nccnc1C(=O)NCCCn1ccnc1,118 to 120
3,Cc1ccc(-n2nc3c(cc2=O)CCc2sc(C(C)O)cc2-3)cc1 (stereo not given),146 to 148
4,C=C(C)CNc1cccc(-c2ccnc3c(C(=O)c4cccs4)cnn23)c1,104 to 106
5,CC(CN1CCCS1(=O)=O)c1ccncc1 (stereo not given),90 to 92
6,CCCCCC1CCc2c3c(c(F)c(F)c2O1)OC(C)C3 (stereo not given),76
7,OCc1cnoc1-c1ccc(F)cc1,41 to 42
8,CC(C)[C@@H]1CC[C@@H](C)C[C@H]1OCC(=O)N(C)CCO,65 to 66
9,CCN1CC2=C(C1)CN(c1c(F)cc3c(=O)c(C(=O)O)cn(C4CC4)c3c1F)C2,188 to 192
10,O=C1NN=C(c2ccc(NC(=O)C3CC3(Cl)Cl)cc2)C2CC12 (stereo not given),264 to 265
11,Cc1nc(N2CCN(Cc3cc(F)cc(F)c3)C2=O)sc1C(N)=O,> 200
12,N#Cc1cc(-c2cccs2)[nH]c1-c1cccs1,202 to 204
13,C1=CCC2=C(C1)CCc1ccccc1C2,42.5 to 43
14,Cc1ccc(S(=O)(=O)N2CCCC(CCl)C2)cc1 (stereo not given),100 to 102
15,CC(=O)N(C(C)=O)c1c(C#N)cnn1-c1c(F)cc(F)c(F)c1F,132 to 134
16,COc1ccc(C(=O)C[N+](=O)[O-])c(O)c1,138 to 140
17,CCCCOC(=O)c1[nH]c(=O)c2cc(OC(C)C)ccc2c1O,118 to 123
18,CCc1nc2c(c(C)c(C)n3nnnc23)n1CCOCCNC(=O)CCCCl,149 to 151
19,C=CCNC(=O)[C@H]1N(C(=O)OC(C)(C)C)CSC1(C)C,94 to 98
20,Nc1c(Cl)c(C(F)(F)F)nn1-c1c(Cl)cc(C(F)(F)F)cc1Cl,99 to 100
21,Cc1ncsc1C(=O)CCCSc1nnnn1C,64 to 65
22,CN(C)C1(c2ccccc2)CCC(C(O)CN2Cc3ccccc3C2)CC1 (stereo not given),130 to 135
23,CCCCCCCCCCCCCCCCOC(=O)OC(C)=CC(C)=O,33 to 35
24,COC(=O)[C@@H]1C[C@H](OC(=N)C(Cl)(Cl)Cl)C(=O)[C@H]2[C@@]1(C)CC[C@H]1C(=O)O[C@H](c3ccoc3)C[C@]21C,120 to 123
25,Cc1cc(-c2nc3ccccc3c(=O)n2-c2ccc(Br)cc2)cc(C)c1OCCO,164 to 165

row,Compound,melting point [°C]
1,CCC(C)c1cc(Cc2cc(C(C)CC)c(N)c(C)c2Cl)c(Cl)c(C)c1N (stereo not given),94 to 102
2,COc1ccc(N2CCN(CCC3CN(C)C(=O)O3)CC2)cc1OC (stereo not given),90 to 92
3,COC(=S)C(Cl)=C(C)Cl,27 to 30
4,CC(=O)N(c1ccc(C)c(C)c1)[C@H](C)C(=O)O,156 to 159
5,Nc1nc(C(F)(F)F)c(-c2ccncc2)cc1C(=O)O,> 283
6,CNC(=NC#N)NCCSCc1csc(NC(=S)NCC(F)(F)F)n1,157 to 158
7,Cc1c(C)c2c(c(C)c1O)C(=O)CC(CCC(C)CCCC(C)C)(COc1ccc([N+](=O)[O-])cc1)O2 (stereo not given),121 to 123
8,COC(=O)c1ccc(NC=O)cc1S(=O)(=O)NC(C)(C)C,113 to 114
9,COC(=O)C=Cc1cnc(C(=O)OC)cc1C(=O)OC,126 to 128
10,CC(C)NC1=NS(=O)(=O)c2ccc(C(F)(F)F)cc2N1,294 to 297
11,CC1(C)CC(=O)C(SCc2ccc([N+](=O)[O-])cc2)=C(O)C1,140 to 142
12,Cc1ncc(CNC(=O)c2sc(N3CCN(CC4CC4)C3=O)nc2C)s1,165 to 167
13,N#Cc1cc2c(nc1N1CCCCCC1)CCCC2=O,76 to 78
14,CCOC(=O)c1cc(-c2cc(C)on2)[nH]n1,149 to 151
15,Cn1nnc2sccc2c1=O,104 to 108
16,CC(C)(C)OC(=O)Nc1c(C#CBr)c(C#N)nn1-c1c(Cl)cc(C(F)(F)F)cc1Cl,168 to 170
17,Cn1c(=O)n(C(=O)OC(C)(C)C)c2ccc(Br)cc21,98 to 99
18,N#Cc1cc(N2CCCCC2)ccc1N,87 to 88
19,CC(C)c1csc2[nH]cc(C#N)c(=O)c12,285
20,O=S(=O)(c1ccc(C(F)(F)F)cc1)N1c2cc(F)c(F)cc2-c2[nH]ncc2[C@H]1C1CC1,137 to 138
21,COC(=O)N1CCC(=O)C(C2(NO)OCCO2)C1 (stereo not given),162 to 165
22,NC(=O)CCCCCCCCCCCNC(N)=NC(=O)c1nc(Cl)c(N)nc1N,192 to 194
23,CCCc1nc(C(C)O)c(C(=O)OCC)[nH]1 (stereo not given),151 to 153
24,COc1nc2ccc3c(c2o1)C(CCNC(C)=O)CC3 (stereo not given),126 to 128

# Now from value to compound:
row,melting point [°C],Compound
1,134,OC(Cc1ccccc1)(Cn1cncn1)c1ccccc1 (stereo not given)
2,58.5,CCC1(COCCCCCCOc2ccc(C(=O)O)cc2)COC1
3,97 to 98,COC(=O)c1ccc([N+](=O)[O-])c(OCCO)c1
4,93 to 96,CC(C)(C)OC(=O)Nc1ccc(-c2cccc(F)c2)cc1[N+](=O)[O-]
5,134 to 138,c1ccc2c(OC[C@H]3CCCN3c3ncnc4[nH]cnc34)ccc(CN3CCOCC3)c2c1
6,207 to 211,CNC(=O)c1ccc(C=CC(=O)NCC(=O)N(C)c2ccc(Cl)c(CO)c2Cl)cc1
7,150,Clc1ccccc1-c1c(I)nc2ncnn2c1NC1CCCC1
8,55,CC(C)(C)C(=O)Nc1cccc(P(c2ccccc2)c2cccc3ccccc23)n1 (stereo not given)
9,96 to 97,CC(C)CCOc1ccc(Cl)c2c(=O)c3ccccc3sc12
10,176 to 178,NC(=O)C1=NN(c2cccc(COc3ccccc3)c2)C(c2ccccc2F)N1 (stereo not given)
11,220 to 224,CCc1cnc(N2CCC(c3ccc4[nH]c(-c5ccc(S(C)(=O)=O)cc5F)nc4c3)CC2)nc1
12,180 to 183,CCOC(=O)C1=C(C)NC(c2cscn2)=NC1c1cccc(O)c1 (stereo not given)
13,196 to 198,CC(=O)O[C@@H]1OCC[C@@H]1NC(=O)[C@H](CC(C)C)NC(=O)Nc1cccc2ccccc12
14,152 to 153,Cc1oc(-c2ccccc2)nc1COc1ccc(COc2nn(-c3ccccc3)cc2C=O)cc1
15,125 to 128,O=C1NCCN(C(=O)OCc2ccccc2)C1Cc1ccccc1 (stereo not given)
16,280 to 282,CN1CCN(Cc2c(O)c(O)c(O)c3c(=O)cc(-c4ccccc4)oc23)CC1
17,116 to 117,O=[N+]([O-])c1ccc(OCc2ccccn2)cc1
18,67 to 68,O=C(O)CCCCCCCOc1ccccc1
19,139 to 141,Nc1ccc(-c2ncnn2-c2ccccc2F)cc1
20,123 to 124,OC(CNCc1ccccc1)C(c1ccccc1)c1ccccc1 (stereo not given)
21,131 to 134,Cc1cccc(C(=O)NO)c1N(C)S(=O)(=O)c1ccc(OCCCCNC(=O)c2cc3ccccc3o2)cc1
22,204 to 205,CCN(CC)c1ccc2nc3c4ccc(Br)cc4c(=Nc4ccccn4)cc-3oc2c1
23,220,NS(=O)(=O)c1cccc(-c2cn(-c3nc(-c4ccc(C(F)(F)F)nc4)cc(C(F)F)n3)cn2)c1
24,105 to 106,CCOC(=O)CC(=O)c1cc(F)c(S(=O)c2ccccc2)nc1Nc1ccc(F)cc1F (stereo not given)
25,202 to 204,COC(=O)c1c(I)ccc2c(=O)c3ccccc3[nH]c12
26,231 to 232,COc1ccc(Oc2cccc3ncnc(NC(=O)Nc4ccccc4)c23)cc1

row,melting point [°C],Compound
1,70 to 72,O=C(Nc1ccc(OCCCN2CCC3(CC2)OCCO3)c2ccccc12)c1cc(F)cc(N2CCCCC2)c1
2,248 to 250,O=C(O)CSc1ccc(-n2cc(C3c4ccccc4C=Cc4ccccc43)c(=S)[nH]c2=O)nn1
3,115 to 120,COC(=O)c1c[nH]c(C(=O)c2cc(OC)cc(OC)c2)c1
4,165,Cc1ccc(S(=O)(=O)N2Cc3sccc3-n3cccc3C2)cc1
5,144,COc1cc(-c2nc3ccccc3n2Cc2ccccc2C(F)(F)F)cc(OC)c1OC
6,202 to 205,Cc1ccc(Sc2cncc3sc(C(=O)NC=NN)cc23)cc1
7,95 to 97,O=C1CCCc2cc(OCc3ccccc3)ccc21
8,261 to 262,CC1(C)CCC(C)(C)c2cc3c(cc21)CCc1c(-c2ccc(C(=O)O)cc2)csc1-3
9,94 to 95,CCOC(=O)C1(CCl)Nc2cc(C)cc(C)c2C(=O)N1c1ccccc1Cl (stereo not given)
10,142 to 144,CCCC(=O)c1cnc2ccc(COC(=O)c3ccccc3)cc2c1Nc1ccccc1C
11,172 to 173,CN(C)C(=O)c1cc2ccc3c(c2cc1Cn1cncn1)C(C)(C)C(=O)O3
12,184 to 186,OC1CCOc2ccc(C=Cc3nc4cc(F)ccc4s3)cc21 (stereo not given)
13,115 to 116,COc1ncccc1NC(=NC#N)NC(NC(=O)c1cccc(Cl)c1)C(C)(Cl)Cl (stereo not given)
14,232 to 233,Cc1cc(CCC(=O)O)nc(-c2nc(=O)c3ccc(Cl)cc3s2)c1
15,238 to 239,COc1ccc2c(c1)c1c(n2Cc2ccc(C(C)(C)C)cc2)COC(=O)C1=O
16,198 to 201,CNc1ccc(C(=O)c2ccccc2)cc1[N+](=O)[O-]
17,227,COc1ccc(C2c3[nH]c4ccccc4c3CCN2C(=O)C=Cc2cccc([N+](=O)[O-])c2)cc1 (stereo not given)
18,267 to 270,COc1ccc(C2(c3ccc(OC)cc3)Nc3ccc(-c4ccc5[nH]cnc5c4)cc3N2)cc1
19,148 to 150,COc1ccc(-c2cn(C)cc(-c3cccc(C(F)(F)F)c3)c2=O)cc1OC
20,59 to 60,COC(=O)Cc1nc(-c2ccc(C)cc2)oc1C
21,242 to 248,Cc1onc(-c2ccccc2)c1-c1ccc(S(=O)(=O)NCC(=O)O)cc1
22,139 to 140,CCOC(=O)CC(c1ccccc1)N(N)C(=O)c1cc(C(=O)OCc2ccccc2)ccc1OCCOC (racemic)
23,76 to 80,O=C(c1cccs1)N(CCCCn1ccnc1)C1=Nc2cccc3cccc1c23
24,186 to 188,CC(C)n1nc(-c2c(-c3ccccc3)nc(Cl)c(N)c2Cl)ccc1=O
25,112,Cc1c(C(=O)OC(C)(C)C)nn(-c2ccc(Cl)cc2Cl)c1-c1ccc(Cl)cc1
